Patent US9718804B2, “GSK-3 inhibitors” (BRISTOL-MYERS SQUIBB COMPANY, priority 2013, dated 2017)
Like-named read-outs stand apart in the source and are kept apart here.

Key:
pTau = pTau assay (no method described); format: cell-based
GSK3α = GSK3α (Homo sapiens, UniProt P49840); assay: GSK3α kinase assay (Caliper LabChip, fluoresceinated peptide substrate); format: biochemical
Description: (§1) The kinase assay was performed in V-bottom 384-well plates. […] The reaction was incubated at room temperature for 20 hours and terminated by adding 45 μl of 35 mM EDTA to each sample. The reaction mixture was analyzed on the Caliper LabChip3000 (Caliper, Hopkinton, Mass.) by electrophoretic separation of the unphosphorylated substrate and phosphorylated product. […] Compounds were dissolved at 10 mM in dimethylsulfoxide (DMSO) and evaluated at eleven concentrations. IC50 values were derived by non-linear regression analysis.

GSK3β = GSK3β (Homo sapiens, UniProt P49841); assay: GSK3β kinase assay (Caliper LabChip, fluoresceinated peptide substrate); format: biochemical
Chain of GSK3β (P49841 whole entry, species assumed): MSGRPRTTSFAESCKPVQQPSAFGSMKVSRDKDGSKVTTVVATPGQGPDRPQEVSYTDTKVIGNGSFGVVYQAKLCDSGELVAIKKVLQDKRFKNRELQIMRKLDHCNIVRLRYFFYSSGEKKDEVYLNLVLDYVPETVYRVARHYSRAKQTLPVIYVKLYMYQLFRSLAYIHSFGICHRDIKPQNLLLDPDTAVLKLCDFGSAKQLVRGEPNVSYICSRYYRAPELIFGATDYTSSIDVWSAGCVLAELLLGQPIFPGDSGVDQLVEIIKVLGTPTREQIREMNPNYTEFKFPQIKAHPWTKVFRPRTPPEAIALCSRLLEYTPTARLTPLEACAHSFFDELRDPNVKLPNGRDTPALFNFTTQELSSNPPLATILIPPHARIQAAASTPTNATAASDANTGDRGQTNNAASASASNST
Description: as §1

[1] = first value of the cell, 250 pM enzyme, 20 uM ATP, 20 hours at room temperature, read-out: GSK3β/α (nM): GSK3β IC50

Chain of GSK3α (P49840 whole entry, species assumed): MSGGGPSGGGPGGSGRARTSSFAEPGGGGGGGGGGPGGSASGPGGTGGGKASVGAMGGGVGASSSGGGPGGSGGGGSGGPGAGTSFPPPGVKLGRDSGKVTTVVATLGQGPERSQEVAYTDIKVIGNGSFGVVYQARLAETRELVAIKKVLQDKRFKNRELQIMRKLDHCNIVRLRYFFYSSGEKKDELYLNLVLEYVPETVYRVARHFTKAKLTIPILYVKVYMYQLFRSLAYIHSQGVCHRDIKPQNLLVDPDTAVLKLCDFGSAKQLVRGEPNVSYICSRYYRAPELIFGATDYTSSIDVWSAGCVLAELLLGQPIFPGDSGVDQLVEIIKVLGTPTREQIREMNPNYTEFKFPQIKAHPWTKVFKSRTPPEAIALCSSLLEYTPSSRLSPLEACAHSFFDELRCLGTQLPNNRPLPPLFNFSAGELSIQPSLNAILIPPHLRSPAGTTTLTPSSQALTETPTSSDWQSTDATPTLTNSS

`CC(C)(C)S(=O)(=O)c1ccncc1NC(=O)c1ccnc(Nc2ccc(C(F)(F)F)cn2)c1` [Example 187, N-(4-(tert-butylsulfonyl)pyridin-3-yl)-2-((5-(trifluoromethyl)pyridin-2-yl)amino)isonicotinamide] showed an IC50 (pTau) of 1.1 nM, an IC50 (GSK3α) of 0.07 nM and an IC50 (GSK3β; [1]) of 0.4 nM.

`CC(=O)c1c(NC(=O)c2ccnc(Nc3ccc(C(F)(F)F)cn3)c2)cnn1C` [Example 206, N-(5-Acetyl-1-methyl-1H-pyrazol-4-yl)-2-((5-(trifluoromethyl)pyridin-2-yl)amino)isonicotinamide] gave an IC50 (pTau) of 400 nM, an IC50 (GSK3α) of 2.7 nM and an IC50 (GSK3β; [1]) of 3.1 nM.

Work on `N#Cc1cccc(Nc2cc(C(=O)Nc3cncc(-c4ccc(C#N)c(F)c4)c3)ccn2)n1` [Example 165, N-(5-(4-Cyano-3-fluorophenyl)pyridin-3-yl)-2-((6-cyanopyridin-2-yl)amino)isonicotinamide] yielded an IC50 (pTau) of 84 nM, an IC50 (GSK3α) of 0.4 nM and an IC50 (GSK3β; [1]) of 1.2 nM.

With `COc1ccc(Nc2cc(C(=O)Nc3cncc(-c4ccccc4F)c3)ccn2)nc1` [Example 141, N-(5-(2-Fluorophenyl)pyridin-3-yl)-2-((5-methoxylpyridin-2-yl)amino)isonicotinamide] the IC50 (pTau) was 680 nM, the IC50 (GSK3α) was 1.8 nM and the IC50 (GSK3β; [1]) was 3.5 nM.

Molecule `Cc1cc(-c2ccccc2)c(NC(=O)c2ccnc(Nc3ccc(C(F)(F)F)cn3)c2)cn1` [Example 68, N-(6-Methyl-4-phenylpyridin-3-yl)-2-((5-(trifluoromethyl)pyridin-2-yl)amino)isonicotinamide] has an IC50 (pTau) of 1010 nM, an IC50 (GSK3α) of 5.7 nM and an IC50 (GSK3β; [1]) of 12 nM.

Molecule `CCCC(O)c1cc(Cl)ncc1NC(=O)c1ccnc(Nc2ccc(C(F)(F)F)cn2)c1` (stereo not drawn) [Example 100, N-(6-Chloro-4-(1-hydroxybutyl)pyridin-3-yl)-2-((5-(trifluoromethyl)pyridin-2-yl)amino)isonicotinamide] has an IC50 (pTau) of 500 nM, an IC50 (GSK3α) of 8.4 nM and an IC50 (GSK3β; [1]) of 11 nM.

`CCC(O)(c1cc(Cl)ncc1NC(=O)c1ccnc(Nc2ccc(C(F)(F)F)cn2)c1)C1CC1` (stereo not drawn) [Example 101, N-(6-Chloro-4-(1-cyclopropyl-1-hydroxypropyl)pyridin-3-yl)-2-((5-(trifluoromethyl)pyridin-2-yl)amino)isonicotinamide] showed an IC50 (pTau) of 660 nM, an IC50 (GSK3α) of 7.4 nM and an IC50 (GSK3β; [1]) of 11 nM.

`CC1(C)CN(c2ccncc2NC(=O)c2ccnc(Nc3ccc(C(F)(F)F)cn3)c2)CCO1` [Example 22, N-(4-(2,2-Dimethylmorpholino)pyridin-3-yl)-2-((5-(trifluoromethyl)pyridin-2-yl)amino)isonicotinamide] showed an IC50 (pTau) of 18 nM, an IC50 (GSK3α) of 0.31 nM and an IC50 (GSK3β; [1]) of 0.48 nM.

`N#Cc1ccc(Nc2cc(C(=O)Nc3cnccc3-c3ccc(F)cc3F)ccn2)nc1` [Example 57, 2-((5-Cyanopyridin-2-yl)amino)-N-(4-(2,4-difluorophenyl)pyridin-3-yl)isonicotinamide] gave an IC50 (pTau) of 19 nM, an IC50 (GSK3α) of 0.59 nM and an IC50 (GSK3β; [1]) of 1.3 nM.

`CC(C)(C#N)c1ccc(Nc2cc(C(=O)Nc3cnccc3-c3ccccc3)ccn2)nc1` [Example 61, 2-((5-(2-Cyanopropan-2-yl)pyridin-2-yl)amino)-N-(4-phenylpyridin-3-yl)isonicotinamide] gave an IC50 (pTau) of 150 nM, an IC50 (GSK3α) of 0.54 nM and an IC50 (GSK3β; [1]) of 1.5 nM.

Work on `O=C(Nc1cnccc1-c1ccc(F)cc1)c1ccnc(Nc2ccc(Cl)cn2)c1` [Example 58, 2-((5-Chloropyridin-2-yl)amino)-N-(4-(4-fluorophenyl)pyridin-3-yl)isonicotinamide] yielded an IC50 (pTau) of 57 nM, an IC50 (GSK3α) of 0.36 nM and an IC50 (GSK3β; [1]) of 0.86 nM.

`Cc1ccncc1NC(=O)c1ccnc(Nc2ccc(C#N)cn2)c1` [Example 26, 2-((5-Cyanopyridin-2-yl)amino)-N-(4-methylpyridin-3-yl)isonicotinamide] gave an IC50 (pTau) of 670 nM, an IC50 (GSK3α; second value of the cell, 250 pM enzyme, 20 uM ATP, 20 hours at room temperature, read-out: GSK3β/α (nM): GSK3α IC50) of 8.2 nM and an IC50 (GSK3β) of 14 nM.

In the case of `CCCC1(c2cc(Cl)ncc2NC(=O)c2ccnc(Nc3ccc(C(F)(F)F)cn3)c2)OCCO1` [Example 88, N-(6-Chloro-4-(2-propyl-1,3-dioxolan-2-yl)pyridin-3-yl)-2-((5-(trifluoromethyl)pyridin-2-yl)amino)isonicotinamide], the IC50 (pTau) is reported as 80 nM, the IC50 (GSK3α) is reported as 0.23 nM and the IC50 (GSK3β; [1]) is reported as 0.69 nM.

`NS(=O)(=O)c1ccc(Nc2cc(C(=O)Nc3cncc(-c4ccccc4F)c3)ccn2)nc1` [Example 156, N-(5-(2-Fluorophenyl)pyridin-3-yl)-2-((5-sulfamoylpyridin-2-yl)amino)isonicotinamide] showed an IC50 (pTau) of 5600 nM, an IC50 (GSK3α) of 1.6 nM and an IC50 (GSK3β; [1]) of 3 nM.

Molecule `O=C(Nc1cnccc1-c1ccccc1)c1ccnc(Nc2ccc(Cl)cn2)c1` [Example 59, 2-((5-Chloropyridin-2-yl)amino)-N-(4-phenylpyridin-3-yl)isonicotinamide] has an IC50 (pTau) of 45 nM, an IC50 (GSK3α) of 0.39 nM and an IC50 (GSK3β; [1]) of 0.9 nM.

`Cc1ccnc(Nc2cc(C(=O)Nc3cnccc3-c3ccccc3)ccn2)c1` [Example 6, 2-((4-Methylpyridin-2-yl)amino)-N-(4-phenylpyridin-3-yl)isonicotinamide] gave an IC50 (pTau) of 164 nM, an IC50 (GSK3α) of 1.3 nM and an IC50 (GSK3β; [1]) of 1.1 nM.

`COc1cccc(Nc2cc(C(=O)Nc3cncc(-c4ccccc4F)c3)ccn2)n1` [Example 139, N-(5-(2-Fluorophenyl)pyridin-3-yl)-2-((6-methoxylpyridin-2-yl)amino)isonicotinamide] was tested, and the IC50 (pTau) was 1300 nM, the IC50 (GSK3α) was 3.2 nM and the IC50 (GSK3β; [1]) was 5.4 nM.

`O=C(Nc1cncc(-c2ccccc2F)c1)c1ccnc(Nc2ccc(S(=O)(=O)N3CCCCC3)cn2)c1` [Example 159, N-(5-(2-Fluorophenyl)pyridin-3-yl)-2-((5-(piperidin-1-ylsulfonyl)pyridin-2-yl)amino)isonicotinamide] was tested, and the IC50 (pTau) was 960 nM, the IC50 (GSK3α) was 1.9 nM and the IC50 (GSK3β) was 3.9 nM.

Work on `CC1(c2ccncc2NC(=O)c2ccnc(Nc3ccc(C(F)(F)F)cn3)c2)OCCO1` [Example 33, N-(4-(2-Methyl-1,3-dioxolan-2-yl)pyridin-3-yl)-2-((5-(trifluoromethyl)pyridin-2-yl)amino)isonicotinamide] yielded an IC50 (pTau) of 0.55 nM, an IC50 (GSK3α) of 0.18 nM and an IC50 (GSK3β; [1]) of 0.29 nM.

`CCOc1ccncc1NC(=O)c1ccnc(Nc2cc(C)ccn2)c1` [Example 13, N-(4-Ethoxypyridin-3-yl)-2-((4-methylpyridin-2-yl)amino)isonicotinamide] was tested, and the IC50 (pTau) was 154 nM, the IC50 (GSK3α) was 2.3 nM and the IC50 (GSK3β; [1]) was 1.4 nM.

`O=C(Nc1cnccc1-c1ccccc1)c1ccnc(Nc2cccc(F)n2)c1` [Example 7, 2-((6-Fluoropyridin-2-yl)amino)-N-(4-phenylpyridin-3-yl)isonicotinamide] gave an IC50 (pTau) of 249 nM, an IC50 (GSK3α) of 5.9 nM and an IC50 (GSK3β; [1]) of 8.5 nM.

Work on `O=C(Nc1cnccc1S(=O)(=O)c1ccccc1)c1ccnc(Nc2ccc(C(F)(F)F)cn2)c1` [Example 183, N-(4-(Phenylsulfonyl)pyridin-3-yl)-2-((5-(trifluoromethyl)pyridin-2-yl)amino)isonicotinamide] yielded an IC50 (pTau) of 200 nM, an IC50 (GSK3α) of 0.75 nM and an IC50 (GSK3β; [1]) of 2.2 nM.

`O=C(Nc1cnc(F)cc1N1CCC(F)(F)CC1)c1ccnc(Nc2ccc(C(F)(F)F)cn2)c1` [Example 71, N-(6-Fluoro-4-(4,4-difluoropiperidin-1-yl)pyridin-3-yl)-2-((5-(trifluoromethyl)pyridin-2-yl)amino)isonicotinamide] gave an IC50 (pTau) of 60 nM, an IC50 (GSK3α) of 0.36 nM and an IC50 (GSK3β; [1]) of 1.3 nM.

With `O=C(Nc1cnncc1-c1ccccc1)c1ccnc(Nc2ccc(C(F)(F)F)cn2)c1` [Example 198, N-(5-Phenylpyridazin-4-yl)-2-((5-(trifluoromethyl)pyridin-2-yl)amino)isonicotinamide] the IC50 (pTau) was 180 nM, the IC50 (GSK3α) was 2.9 nM and the IC50 (GSK3β; [1]) was 6.7 nM.

`Cc1cc(Nc2cc(C(=O)Nc3cnccc3-c3ccccc3)ccn2)ncc1F` [Example 9, 2-((5-Fluoro-4-methylpyridin-2-yl)amino)-N-(4-phenylpyridin-3-yl)isonicotinamide] was tested, and the IC50 (pTau) was 110 nM, the IC50 (GSK3α) was 2.5 nM and the IC50 (GSK3β; [1]) was 4.1 nM.

`O=C(Nc1cncc(F)c1-c1ccccc1)c1ccnc(Nc2ccc(C(F)(F)F)cn2)c1` [Example 117, N-(5-Fluoro-4-phenylpyridin-3-yl)-2-((5-(trifluoromethyl)pyridin-2-yl)amino)isonicotinamide] showed an IC50 (pTau) of 254 nM, an IC50 (GSK3α) of 1.4 nM and an IC50 (GSK3β; [1]) of 3 nM.

`CCc1cccc(Nc2cc(C(=O)Nc3cncc(-c4ccccc4F)c3)ccn2)n1` [Example 138, N-(5-(2-Fluorophenyl)pyridin-3-yl)-2-((6-ethylpyridin-2-yl)amino)isonicotinamide] was tested, and the IC50 (pTau) was 4700 nM, the IC50 (GSK3α) was 2.2 nM and the IC50 (GSK3β; [1]) was 3.5 nM.

`CC(C)CSc1ccncc1NC(=O)c1ccnc(Nc2ccc(C(F)(F)F)cn2)c1` [Example 175, N-(4-(Isobutylthio)pyridin-3-yl)-2-((5-(trifluoromethyl)pyridin-2-yl)amino)isonicotinamide] gave an IC50 (pTau) of 78 nM, an IC50 (GSK3α) of 0.4 nM and an IC50 (GSK3β; [1]) of 1.1 nM.

For `O=C(Nc1cnccc1[S+]([O-])c1ccccc1)c1ccnc(Nc2ccc(C(F)(F)F)cn2)c1` (stereo not drawn) [Example 177, N-(4-(Phenylsulfinyl)pyridin-3-yl)-2-((5-(trifluoromethyl)pyridin-2-yl)amino)isonicotinamide], the IC50 (pTau) was 760 nM, the IC50 (GSK3α) was 1.1 nM and the IC50 (GSK3β; [1]) was 3.9 nM.

Work on `N#Cc1ccc(Nc2cc(C(=O)Nc3cnccc3N3CCCCC3)ccn2)nc1` [Example 27, 2-((5-Cyanopyridin-2-yl)amino)-N-(4-(piperidin-1-yl)pyridin-3-yl)isonicotinamide] yielded an IC50 (pTau) of 5.2 nM, an IC50 (GSK3α) of 0.18 nM and an IC50 (GSK3β; [1]) of 0.42 nM.

Molecule `N#Cc1ccc(Nc2cc(C(=O)Nc3cncc4ccccc34)ccn2)nc1` [Example 65, 2-((5-Cyanopyridin-2-yl)amino)-N-(isoquinolin-4-yl)isonicotinamide] has an IC50 (pTau) of 420 nM, an IC50 (GSK3α) of 3.2 nM and an IC50 (GSK3β; [1]) of 8.5 nM.
